According to patent EP0278501A2, “Nucleotide analogs, their production and use” (Takeda Chemical Industries, Ltd., priority 1987, dated 1988):
Converted amounts (≈) assume the structure as drawn.

What was measured:
[1] = test system: cyclic AMP phosphodiesterase originated from a cow brain; assay: Reaction with cyclic AMP phosphodiesterase; type: biochemical; conditions: enzyme originated from a cow brain
[2] = test system: Herpes Simplex Virus Type 1, HF Strainn; assay: Inhibition of viral cytopathogenic effect in infected Vero cells; type: cell-based
Text: Inhibitory Effect of Antiviral Compounds against Herpes Simplex Virus Type 1, HF Strainn
Vero cells were infected with 100 TCIDso(50% tissue-culture infected doses) of viruses and cultured with various concentrations of the compounds.

[3] = Cytotoxicity in non-infected control culture (visible disruption of normal cell morphology); type: cell-based; conditions: monkey, vero cells; minimum concentration to cause a visible disruption of normal cell morphology; non-infected Vero control culture, three days; read-out: Cytotoxicity^b)
[4] = test system: Vero cells; assay: as above; type: cell-based; conditions: minimum concentration to cause a visible disruption of normal cell morphology; non-infected Vero control culture, three days; 4320 min

## 2'-Deoxyaristeromycin-3',6'-cyclic phosphate [Example 1]
[1]
  conversion by cyclic AMP phosphodiesterase: changed to 2'-deoxyaristeromycin-mono phosphate

## Nc1nc2c(ncn2[C@@H]2C[C@H](COP(=O)(O)O)[C@@H](O)C2)c(=O)[nH]1 [Carbocyclic•2'-deoxyguanosine-6'-monophosphate]
[2]; Human alphaherpesvirus 1, 72 h; concentration required to reduce the viral cytopathogenic effect by 50%; Vero cells infected with 100 TCID50; observed three days after the infection; read-out: ID50^a)
  EC50: 0.2 µg/mL (≈ 0.579 µM)
[3]
  MCC at 72 h: 50 µg/mL

## Carbocyclic•2'-deoxyguanosine 6'-triphosphate
[2]; concentration required to reduce the viral cytopathogenic effect by 50%, Vero cells infected with 100 TCID50, observed three days after the infection, 4320 min
  ID50^a): 0.4 µg/mL
[4]
  Cytotoxicity^b): 50 µg/mL
